From PubChem BioAssay AID330 (DTP/NCI, 2004)
Values joined by “and” are separate entries in the source; they are usually repeats but may differ in a detail not shown here. Equal entries are not always repeated. Toxic doses and inconclusive results are not listed. Rule for the calls: active = survival T/C of 150% or more; inactive = T/C below 125% in these data.

Test system: P388 leukemia ip, CD2F1 mice, survival T/C
Assay: NCI In Vivo Anticancer Drug Screen. Data for tumor model P388 Leukemia (intraperitoneal) in CD2F1 (CDF1) mice
Details: endpoint: median survival time, higher = longer survival
In short: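 Mice carrying the transplanted tumor received test compound or vehicle. Survival was recorded in each group, and the value is the treated-group measurement divided by that of the vehicle-treated control group.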

[1] = dose: 50.0 mg/kg/injection, schedule: Q01DX009 (ip), vehicle: suspension in saline
[2] = dose: 100.0 mg/kg/injection, schedule: Q01DX009 (ip), vehicle: suspension in saline
[3] = dose: 200.0 mg/kg/injection, schedule: Q01DX009 (ip), vehicle: suspension in saline
[4] = dose: 50.0 mg/kg/injection, schedule: Q01DX005 (ip), vehicle: Klucel (hydroxypropylcellulose) (HPC)
[5] = dose: 100.0 mg/kg/injection, schedule: Q01DX005 (ip), vehicle: Klucel (hydroxypropylcellulose) (HPC)
[6] = dose: 200.0 mg/kg/injection, schedule: Q01DX005 (ip), vehicle: Klucel (hydroxypropylcellulose) (HPC)
[7] = dose: 50.0 mg/kg/injection, schedule: Q01DX009 (ip), vehicle: saline with Tween-80
[8] = dose: 100.0 mg/kg/injection, schedule: Q01DX009 (ip), vehicle: saline with Tween-80
[9] = dose: 200.0 mg/kg/injection, schedule: Q01DX009 (ip), vehicle: saline with Tween-80
[10] = dose: 25.0 mg/kg/injection, schedule: Q01DX009 (ip), vehicle: saline with Tween-80
[11] = dose: 50.0 mg/kg/injection, schedule: Q04DX003 (ip), vehicle: saline with Tween-80
[12] = dose: 100.0 mg/kg/injection, schedule: Q04DX003 (ip), vehicle: saline with Tween-80
[13] = dose: 200.0 mg/kg/injection, schedule: Q04DX003 (ip), vehicle: saline with Tween-80
[14] = dose: 100.0 mg/kg/injection, schedule: Q04DX002 (ip), vehicle: saline with Tween-80
[15] = dose: 200.0 mg/kg/injection, schedule: Q04DX002 (ip), vehicle: saline with Tween-80
[16] = dose: 400.0 mg/kg/injection, schedule: Q04DX002 (ip), vehicle: saline with Tween-80
[17] = dose: 25.0 mg/kg/injection, schedule: Q04DX003 (ip), vehicle: saline with Tween-80
[18] = dose: 50.0 mg/kg/injection, schedule: Q01DX005 (ip), vehicle: saline with Tween-80
[19] = dose: 100.0 mg/kg/injection, schedule: Q01DX005 (ip), vehicle: saline with Tween-80
[20] = dose: 200.0 mg/kg/injection, schedule: Q01DX005 (ip), vehicle: saline with Tween-80
[21] = dose: 12.5 mg/kg/injection, schedule: Q01DX005 (ip), vehicle: saline with Tween-80

Measured: T/C

Fc1ccc(NC(=S)SCc2ccc3c(c2)OCO3)cc1
inactive: [1] 101 % of control | [2] 101 % of control | [3] 116 % of control

O=C1c2ccccc2C(=O)N1/N=[N+](\[O-])N1CCOCC1
inactive: dose: 25.0 mg/kg/injection, schedule: Q01DX005 (ip), vehicle: Klucel (hydroxypropylcellulose) (HPC) 90 % of control | [4] 99 % of control | [5] 90 % of control | [6] 101 % of control

COC(=O)NC1C(C)OC(OC2C/C=C(/C)C3C=CC4C(OC5CC(OC6CC(OC7CC(O)C(O)C(C)O7)C(OC7CC(O)C(OC)C(C)O7)C(C)O6)C(O)C(C)O5)C(C)CC(C)C4C3(C)/C(O)=C3\C(=O)OC4(CC(C)C(CO)=CC4/C=C\2C)C3=O)CC1(C)[N+](=O)[O-] (stereo not drawn)
inactive: dose: 7.5 mg/kg/injection, schedule: Q01DX009 (ip), vehicle: saline 106 % of control | dose: 15.0 mg/kg/injection, schedule: Q01DX009 (ip), vehicle: saline 115 % of control and 122 % of control | dose: 30.0 mg/kg/injection, schedule: Q01DX009 (ip), vehicle: saline 121 % of control

N#CC1(OC2OC(CO)C(O)C(O)C2O)C=CC(O)C1O (stereo not drawn)
inactive: dose: 25.0 mg/kg/injection, schedule: Q01DX005 (ip), vehicle: saline 106 % of control | dose: 50.0 mg/kg/injection, schedule: Q01DX005 (ip), vehicle: saline 120 % of control | dose: 100.0 mg/kg/injection, schedule: Q01DX005 (ip), vehicle: saline 111 % of control and 97 % of control | dose: 200.0 mg/kg/injection, schedule: Q01DX005 (ip), vehicle: saline 121 % of control and 97 % of control | dose: 400.0 mg/kg/injection, schedule: Q01DX005 (ip), vehicle: saline 102 % of control

CCCCC(CC)C1NC(C(=O)O)CS1 (stereo not drawn)
inactive: [1] 96 % of control | [2] 87 % of control | [3] 96 % of control

CC(=O)OCC1OC(n2cc(F)c(=O)[nH]c2=O)CC1OC(C)=O (stereo not drawn)
inactive: [7] 100 % of control | [8] 118 % of control | [9] 86 % of control

Cc1n[nH]c2ccc([N+](=O)[O-])cc2c1=O
inactive: dose: 6.25 mg/kg/injection, schedule: Q01DX009 (ip), vehicle: saline with Tween-80 100 % of control | dose: 12.5 mg/kg/injection, schedule: Q01DX009 (ip), vehicle: saline with Tween-80 100 % of control | [10] 90 % of control | [11] 100 % of control | [12] 95 % of control | [13] 100 % of control

Cc1cccc(-n2c(-c3ccc(Cl)cc3)cs/c2=N\Nc2nnc(-c3ccccc3)c(-c3ccccc3)n2)c1
inactive: [14] 88 % of control | [15] 87 % of control | [16] 89 % of control

CN(C)c1cccc2c(S(=O)(=O)Cl)cccc12
inactive: [17] 106 % of control | [11] 114 % of control | [12] 110 % of control | [13] 124 % of control

CCOC(=O)NC(C(=O)N(C(=O)NC1CCCCC1)C1CCCCC1)C(C)C (stereo not drawn)
inactive: [4] 100 % of control | [5] 95 % of control | [6] 90 % of control

CCN(CC)c1ccc(/C=N/Nc2c3c(nc4ccccc24)CCCC3)cc1
inactive: dose: 6.25 mg/kg/injection, schedule: Q01DX005 (ip), vehicle: saline 100 % of control | dose: 12.5 mg/kg/injection, schedule: Q01DX005 (ip), vehicle: saline 99 % of control

CCN(CC)CCNc1ccc(C)c2sc3c(N)cccc3c(=O)c12
inactive: [7] 100 % of control | [8] 113 % of control | [9] 123 % of control

COC(=O)N/N=C(/CC1(O)C(=O)Nc2ccc(Br)cc21)c1ccc(Cl)cc1Cl (stereo not drawn)
inactive: [14] 89 % of control | [15] 95 % of control | [16] 100 % of control

C=CS(=O)(=O)c1ccc(Nc2cc(S(=O)(=O)O)c(N)c3c2C(=O)c2ccccc2C3=O)cc1
inactive: [10] 116 % of control and 120 % of control | [7] 104 % of control and 115 % of control and 123 % of control | [8] 107 % of control and 120 % of control and 123 % of control | [9] 105 % of control and 118 % of control

Cc1ccccc1C(=O)c1cc(Br)ccc1[N+](=O)[O-]
inactive: dose: 50.0 mg/kg/injection, schedule: Q01DX009 (ip), vehicle: saline 91 % of control | dose: 100.0 mg/kg/injection, schedule: Q01DX009 (ip), vehicle: saline 100 % of control | dose: 200.0 mg/kg/injection, schedule: Q01DX009 (ip), vehicle: saline 100 % of control

COc1ccc(C2NCc3c(sc4c3CCCC4)-n3cccc32)cc1 (stereo not drawn)
inactive: [18] 87 % of control | [19] 87 % of control | [20] 87 % of control

C[CH](C)[Sn](=[O])[CH](C)C
inactive: dose: 0.78 mg/kg/injection, schedule: Q01DX009 (ip), vehicle: saline 113 % of control | dose: 1.56 mg/kg/injection, schedule: Q01DX009 (ip), vehicle: saline 106 % of control | dose: 3.12 mg/kg/injection, schedule: Q01DX009 (ip), vehicle: saline 107 % of control

C=C1C(=O)C[C@H]2[C@H]3CC[C@H](C(=O)O)[C@]12CC3(C)C
inactive: dose: 7.5 mg/kg/injection, schedule: Q01DX005 (ip), vehicle: Klucel (hydroxypropylcellulose) (HPC) 119 % of control | dose: 15.0 mg/kg/injection, schedule: Q01DX005 (ip), vehicle: Klucel (hydroxypropylcellulose) (HPC) 113 % of control | dose: 30.0 mg/kg/injection, schedule: Q01DX005 (ip), vehicle: Klucel (hydroxypropylcellulose) (HPC) 119 % of control | dose: 31.5 mg/kg/injection, schedule: Q01DX005 (ip), vehicle: Klucel (hydroxypropylcellulose) (HPC) 111 % of control

O=C1c2cccc3cccc(c23)C(=O)N1c1ncn[nH]1
inactive: dose: 6.25 mg/kg/injection, schedule: Q01DX005 (ip), vehicle: saline with Tween-80 87 % of control | [21] 86 % of control | [20] 88 % of control

CS/C(=C1/C(=O)N(c2ccccc2)N=C1c1ccccc1)N1CC1
inactive: dose: 100.0 mg/kg/injection, schedule: Q04DX003 (ip), vehicle: Klucel (hydroxypropylcellulose) (HPC) 98 % of control | dose: 200.0 mg/kg/injection, schedule: Q04DX003 (ip), vehicle: Klucel (hydroxypropylcellulose) (HPC) 94 % of control | dose: 400.0 mg/kg/injection, schedule: Q04DX003 (ip), vehicle: Klucel (hydroxypropylcellulose) (HPC) 95 % of control

Clc1ccccc1C(Nc1cnccn1)Nc1cnccn1
inactive: [18] 120 % of control | [19] 114 % of control | [20] 110 % of control | dose: 400.0 mg/kg/injection, schedule: Q01DX005 (ip), vehicle: saline with Tween-80 121 % of control

N#CC1CCCC(C#N)N1Cc1ccccc1 (stereo not drawn)
inactive: dose: 60.0 mg/kg/injection, schedule: Q01DX005 (ip), vehicle: Klucel (hydroxypropylcellulose) (HPC) 110 % of control | dose: 120.0 mg/kg/injection, schedule: Q01DX005 (ip), vehicle: Klucel (hydroxypropylcellulose) (HPC) 106 % of control

CC(C)(C)C1=CCN(C(C)(C)/C=N\O)CC1
inactive: [21] 97 % of control | dose: 25.0 mg/kg/injection, schedule: Q01DX005 (ip), vehicle: saline with Tween-80 100 % of control | [18] 100 % of control and 96 % of control

Cc1ccccc1Nc1c2ccccc2nc2ccccc12
inactive: dose: 12.5 mg/kg/injection, schedule: Q04DX003 (ip), vehicle: saline with Tween-80 95 % of control | [17] 95 % of control | [11] 104 % of control

Cn1c(=O)c2nnn(-c3ccccc3)c2n(C)c1=O
inactive: dose: 45.0 mg/kg/injection, schedule: Q01DX009 (ip), vehicle: saline with Tween-80 100 % of control | dose: 90.0 mg/kg/injection, schedule: Q01DX009 (ip), vehicle: saline with Tween-80 115 % of control | dose: 180.0 mg/kg/injection, schedule: Q01DX009 (ip), vehicle: saline with Tween-80 100 % of control
